Results: PubChem BioAssay AID504553 (Southern Research Specialized Biocontainment Screening …, 2011)

test system: MAGI-CCR5 cells, HIV-1 Ba-L, beta-gal luminescence, 48 h; assay: inhibitors of R5 HIV-1 replication in MAGI cells – MAGI-CCR5 cells, HIV-1 Ba-L, 2% serum, set 4, dose response (AID 504553)

In order of falling IC50:
1. COc1ccc(Cn2c(O)cc3nn(-c4nc5ccccc5s4)c(=O)c-3c2C)cc1  29.2 µM
2. Cc1c2c(=O)n(-c3nc4ccccc4s3)nc-2cc(O)n1CCc1ccc(O)cc1  23 µM
3. COc1ccccc1Cn1c(O)cc2nn(-c3nc4ccccc4s3)c(=O)c-2c1C  19.6 µM
4. Cc1c2c(=O)n(-c3nc4ccccc4s3)nc-2cc(O)n1CCc1cccs1  19 µM
5. Cc1c2c(=O)n(-c3nc4ccccc4s3)nc-2cc(O)n1Cc1ccncc1  9.51 µM
6. Cc1c2c(=O)n(-c3nc4ccccc4s3)nc-2cc(O)n1CCC(C)C  9.35 µM
7. Cc1c2c(=O)n(-c3nc4ccccc4s3)nc-2cc(O)n1Cc1ccccc1  9.28 µM
8. Cc1c2c(=O)n(-c3nc4ccccc4s3)nc-2cc(O)n1Cc1cccs1  7.43 µM
9. Cc1c2c(=O)n(-c3nc4ccccc4s3)nc-2cc(O)n1C1CC1  6.99 µM
10. Cc1c2c(=O)n(-c3nc4ccccc4s3)nc-2cc(O)n1Cc1cccnc1  6.07 µM
11. COc1ccc(CCn2c(O)cc3nn(-c4nc5ccccc5s4)c(=O)c-3c2C)cc1  4.64 µM
12. Cc1c2c(=O)n(-c3nc4ccccc4s3)nc-2cc(O)n1Cc1ccc(F)cc1  3.53 µM
13. Cc1c2c(=O)n(-c3nc4ccccc4s3)nc-2cc(O)n1Cc1ccccc1Cl  3.39 µM
